Reference: patent publication US20260166046A1, “Inhibitors of methionine aminopeptidase-2 and methods of preparation and uses thereof” (Primetime Life Sciences LLC, priority 2022, published 2026)

What was measured:
G. lamblia GS = assay: Trophozoite viability IC50 determination, Giardia assay (ATPLite); format: cell-based; conditions: Giardia duodenalis, 72 h, read-out: Cell viability values Mean IC50 (nM) G. lamblia GS
Experimental: (§1) Giardia cultures: Trophozoites of G. lamblia isolates WB and GS were grown anaerobically in borosilicate glass screw-cap culture tubes (Fisher Scientific) at pH 7.0 in modified TYI-S-33 medium. The medium was supplemented with 10% heat-inactivated bovine serum (Sigma-Aldrich) and 0.05% bovine bile (Sigma-Aldrich). To attain low-oxygen-tension conditions, the tubes were filled to 85 to 90% of their total volume capacity and incubated without shaking at 37° C. Subcultures (2×10^5 trophozoites per tube) were made three times a week. Detachment of trophozoites for inoculation was achieved by chilling the cultures on ice for 20 min. Culturing and detachment of Metronidazole-resistant G. lamblia Assemblage A 713M3 and assemblage B 1279-M1 trophozoites followed the same protocol, except that the growth medium was supplemented with metronidazole gradually increasing the concentration to 10 μM. Amebae cultures: E. histolytica strain HM1:IMSS trophozoites were grown at 37° C. in TYI-S-33 medium supplemented with penicillin (100 U/mL) and streptomycin sulfate (100 μg/mL). Trophozoites were grown anaerobically in borosilicate tubes and subcultures were made 1-2 times a week. Trophozoites were detached for inoculation by chilling the cultures on ice for 20 minutes.
(§2) Trophozoite viability IC50determination
(§3) Giardia assays: 10 μL giardia trophozoites in growth medium were plated at a density of 10,000 cells/well in sterile 96-well black clear bottom assay plates. Fumagillin and fumagillol derivatives were 1:3 serially diluted from a 1 μM DMSO stock solution and then 100 μL/well were transferred in duplicate to the assay wells. Metronidazole (control) was 1:3 serially diluted in growth medium from a 100 μM stock solution in DMSO. The assay plates were placed in a BD GasPak™ EZ Container System (BD Diagnostics) to create an anaerobic growth environment. The sealed containers were incubated at 37° C. for 72 hr. Following incubation, 70 μL/well of the ATPLite reagent (PerkinElmer) was added to the assay plates for one-step lysis and ATP level detection. The luminescent signals of the assay plates were measured on an EnSpire 2300 plate reader (PerkinElmer). Concentration response titration points for each compound were fitted to a 4-parameters logistic nonlinear regression model using KaleidaGraph, yielding the IC50value and standard error (SE).

G. lamblia WB = assay: as above; format: cell-based; conditions: Giardia duodenalis, 72 h, read-out: Cell viability values Mean IC50 (nM) G. lamblia WB
Experimental: as §1, §2, §3

Recombinant human MetAP2 = molecular target: T1, Recombinant human MetAP2 (Homo sapiens, UniProt P50579); assay: MetAP2 fluorescence assay; format: biochemical; conditions: recombinant human MetAP2, H-Met-Gly-Pro-AMC substrate
T1 construct: purchased Bio-Techne/R&D systems
T1 sequence (P50579 whole entry): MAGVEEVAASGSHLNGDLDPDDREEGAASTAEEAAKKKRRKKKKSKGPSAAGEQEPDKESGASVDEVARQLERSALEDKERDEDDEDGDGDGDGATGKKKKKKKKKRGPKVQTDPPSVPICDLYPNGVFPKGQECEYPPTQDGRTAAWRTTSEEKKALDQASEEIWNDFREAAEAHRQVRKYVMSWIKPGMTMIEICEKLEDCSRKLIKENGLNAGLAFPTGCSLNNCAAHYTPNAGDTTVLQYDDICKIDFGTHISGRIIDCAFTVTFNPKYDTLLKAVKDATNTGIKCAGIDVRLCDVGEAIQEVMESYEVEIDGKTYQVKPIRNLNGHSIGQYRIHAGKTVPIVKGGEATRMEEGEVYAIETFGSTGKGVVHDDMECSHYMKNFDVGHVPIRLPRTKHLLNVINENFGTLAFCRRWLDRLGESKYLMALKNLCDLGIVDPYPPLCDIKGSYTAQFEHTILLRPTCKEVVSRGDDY
Experimental: MetAP2 Fluorescence Assay
Recombinant human MetAP2 (Bio-Techne/R&D systems) was diluted to 10 μg/mL in the assay buffer (50 mM HEPES, 0.1 mM CoCl2, 100 mM NaCl, pH 7.5). The substrate, H-Met-Gly-Pro-AMC (Bio-Techne/R&D systems), was diluted to 500 μM with 2 μg/mL of the coupling enzyme, recombinant human dipeptidyl peptidase-4 (Bio-Techne/R&D systems), in assay buffer. 50 μL of 10 μg/mL recombinant human METAP2 were loaded into a flat-bottom black 96-well plate (Greiner Bio), and the reaction was initiated by adding 50 μL of the substrate/dipeptidyl peptidase-4 mixture. The reaction mixture was incubated at room temperature for 10 minutes, and the fluorescence was measured for 5 minutes at excitation and emission wavelengths of 380 nm and 460 nm, respectively, in kinetic mode. For IC50determination, 0.5 μL inhibitor solution was added to the reaction mixture. The reaction rates were used to calculate IC50with KaleidaGraph.

E. histolytica HM1: IMSS = assay: Trophozoite viability IC50 determination, Amebae assay (ATPLite); format: cell-based; conditions: Entamoeba histolytica, 72 h, read-out: Cell viability values Mean IC50 (nM) E. histolytica HM1: IMSS
Experimental: as §1, §2, §3
Amebae assays: The protocol is identical to that described above except that the trophozoites were plated at a density of 5000 cells/well because of their larger size.

Structure (SMILES) | IC50 (G. lamblia GS) | IC50 (G. lamblia WB) | IC50 (Recombinant human MetAP2) | IC50 (E. histolytica HM1: IMSS)
CO[C@@H]1[C@H](OC(=O)Nc2cc(B(O)O)cc(C(=O)O)c2)CC[C@]2(CO2)[C@H]1[C@@]1(C)O[C@@H]1CC=C(C)C [No 21] | 101 to 1000 nM | 101 to 1000 nM | < 0.01 µM | 101 to 1000 nM
CO[C@@H]1[C@H](OC(=O)NCCB(O)O)CC[C@]2(CO2)[C@H]1[C@@]1(C)O[C@@H]1CC=C(C)C [No 63] | 10.1 to 100 nM | 101 to 1000 nM | < 0.01 µM | 101 to 1000 nM
CO[C@@H]1[C@H](OC(=O)Nc2cc(C)cc(B(O)O)c2)CC[C@]2(CO2)[C@H]1[C@@]1(C)O[C@@H]1CC=C(C)C [No 28] | 10.1 to 100 nM | 101 to 1000 nM | < 0.01 µM | 101 to 1000 nM
CO[C@@H]1[C@H](OC(=O)Nc2cc(Cl)c3c(c2)B(O)OC3)CC[C@]2(CO2)[C@H]1[C@@]1(C)O[C@@H]1CC=C(C)C [No 10] | 10.1 to 100 nM | 10.1 to 100 nM | < 0.01 µM | 10.1 to 100 nM
CO[C@@H]1[C@H](OC(=O)NCc2c(F)cc(B(O)O)cc2F)CC[C@]2(CO2)[C@H]1[C@@]1(C)O[C@@H]1CC=C(C)C [No 43] | 101 to 1000 nM | > 1000 nM | < 0.01 µM | > 1000 nM
CO[C@@H]1[C@H](OC(=O)Nc2cc(C#N)cc(B(O)O)c2)CC[C@]2(CO2)[C@H]1[C@@]1(C)O[C@@H]1CC=C(C)C [No 25] | 101 to 1000 nM | 101 to 1000 nM | < 0.01 µM | > 1000 nM
CO[C@@H]1[C@H](OC(=O)Nc2ccc3c(c2)C(C)(C)OB3O)CC[C@]2(CO2)[C@H]1[C@@]1(C)O[C@@H]1CC=C(C)C [No 3] | < 10 nM | < 10 nM | < 0.01 µM | < 10 nM
CO[C@@H]1[C@H](OC(=O)N2CCOc3c(B(O)O)cccc32)CC[C@]2(CO2)[C@H]1[C@@]1(C)O[C@@H]1CC=C(C)C [No 51] | < 10 nM | 101 to 1000 nM | < 0.01 µM | 101 to 1000 nM
CO[C@@H]1[C@H](OC(=O)N2CC=C(B(O)O)CC2)CC[C@]2(CO2)[C@H]1[C@@]1(C)O[C@@H]1CC=C(C)C [No 53] | 101 to 1000 nM | > 1000 nM | < 0.01 µM | > 1000 nM
CO[C@@H]1[C@H](OC(=O)Nc2cc(C#N)ccc2B(O)O)CC[C@]2(CO2)[C@H]1[C@@]1(C)O[C@@H]1CC=C(C)C [No 24] | 101 to 1000 nM | 101 to 1000 nM | < 0.01 µM | > 1000 nM
CO[C@@H]1[C@H](OC(=O)Nc2ccc(B(O)O)c(C(C)C)c2)CC[C@]2(CO2)[C@H]1[C@@]1(C)O[C@@H]1CC=C(C)C [No 62] | 101 to 1000 nM | > 1000 nM | < 0.01 µM | > 1000 nM
CO[C@@H]1[C@H](OC(=O)N2CCCC2B(O)O)CC[C@]2(CO2)[C@H]1[C@@]1(C)O[C@@H]1CC=C(C)C (stereo partly drawn) [No 60] | 10.1 to 100 nM | > 1000 nM | < 0.01 µM | > 1000 nM
CO[C@@H]1[C@H](OC(=O)N[C@@H](CC(C)C)B(O)O)CC[C@]2(CO2)[C@H]1[C@@]1(C)O[C@@H]1CC=C(C)C [No 67] | 10.1 to 100 nM | 101 to 1000 nM | < 0.01 µM | 101 to 1000 nM
CO[C@@H]1[C@H](OC(=O)N[C@H](C)B(O)O)CC[C@]2(CO2)[C@H]1[C@@]1(C)O[C@@H]1CC=C(C)C [No 70] | 10.1 to 100 nM | 101 to 1000 nM | < 0.01 µM | > 1000 nM
CO[C@@H]1[C@H](OC(=O)NCc2ccc(B(O)O)o2)CC[C@]2(CO2)[C@H]1[C@@]1(C)O[C@@H]1CC=C(C)C [No 55] | 101 to 1000 nM | > 1000 nM | < 0.01 µM | > 1000 nM
